Values quoted from earlier work, collected in patent EP2103596A1, “Process for the preparation of N-(phenylethyl) anilines salts and solvates thereof useful as serotonin 5-HT6 antagonists” (priority 2008, dated 2009).
Like-named read-outs stand apart in the source and are kept apart here.

What was measured:
[1] = mice, sub-chronic dosing (10 and 30 mg/kg qd, i.p.)
[2] = rats, sub-chronic dosing (10 and 30 mg/kg qd, i.p.)
[3] = test system: more than 70 tested receptors; conditions: selectivity versus more than 70 tested receptors
[4] = molecular target: CYP2D6 (Homo sapiens, UniProt P10635)
CYP2D6, sequence (P10635 whole entry): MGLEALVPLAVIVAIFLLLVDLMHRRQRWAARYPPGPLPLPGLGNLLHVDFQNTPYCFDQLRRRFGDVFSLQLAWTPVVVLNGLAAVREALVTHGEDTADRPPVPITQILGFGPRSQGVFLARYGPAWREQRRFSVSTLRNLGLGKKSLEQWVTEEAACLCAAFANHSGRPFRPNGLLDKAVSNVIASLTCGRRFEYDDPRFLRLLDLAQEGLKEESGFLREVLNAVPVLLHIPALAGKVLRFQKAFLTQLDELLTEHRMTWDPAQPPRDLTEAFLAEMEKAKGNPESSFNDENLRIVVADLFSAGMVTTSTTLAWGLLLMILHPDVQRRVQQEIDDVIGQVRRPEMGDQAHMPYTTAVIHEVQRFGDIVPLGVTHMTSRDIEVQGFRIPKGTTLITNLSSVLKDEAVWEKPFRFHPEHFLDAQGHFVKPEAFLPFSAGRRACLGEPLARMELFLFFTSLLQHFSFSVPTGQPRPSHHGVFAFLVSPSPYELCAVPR

COc1cc(Cl)cc(C(C)Nc2cc(N3CCNCC3)ccc2S(C)(=O)=O)c1OC.Cl (stereo not shown) [Compound A, [1-(5-Chloro-2,3-dimethoxy-phenyl)-ethyl]-(2-methanesulfonyl-5-piperazin-1-yl-phenyl)-amine hydrochloride salt]
body weight [1]: significant reduction
food intake [1]: significant reduction
body weight [2]: significant reduction
food intake [2]: significant reduction
stability (HLM): > 90 min
safety margin [3]: > 100 fold
IC50 [4]: 7.8 µM
